# Test results published in publication PMC6499206, “Quantification of Volatile Metabolites Derived From Garlic (Allium sativum) in Human Urine” (Frontiers in Nutrition, 2019).
# Test: Quantification of garlic-derived metabolites in human urine after ingestion of 3 g raw garlic (SIDA, SAFE, HRGC-MS / HRGC-GC-MS)
# Type: in vivo
# Settings: 3 g raw garlic
# Excerpt: Human urine samples were obtained from 18 volunteers (age 22–38 years, mean 27 years; 11 females, 7 males); thereby, one volunteer conducted the whole experimental series twice. At the time of examination, volunteers reported no known illness that might have potentially influenced the metabolism or the excretion of urine. The test persons were instructed to avoid foods that were rich in sulfur-containing substances at the testing day as well as 2 days preceding the testing day, namely garlic, onion, wild garlic, chives, cabbage, and leek, and were only allowed to consume the garlic sample provided in the course of the experiments. Additionally, subjects were asked to keep records of the food (including food supplements) and beverages they consumed during these 3 testing days. Generally, the overall panelists' requirements were in accordance with our previous studies ([5], [16]).
# On the sampling day, the outer garlic cloves of a whole garlic bulb were peeled and cut into ~3 mm cubes by using a garlic cutter (Genius GmbH, Limburg/Lahn, Germany). Subsequently these cubes were thoroughly mixed and aliquoted into 3 g portions. Three to four test persons conducted the experiment at the same day. Each test person was asked to ingest a garlic portion of 3 g. In total, eight consecutive urine samples were provided by each test person, comprising one whole urine set. The samples were collected in sterile brown glass bottles, with sampling times as follows: one sample was provided directly prior to garlic consumption. The series of the second to eighth sample was then obtained at about 0.5, 1, 2, 4, 6, 8, and 24 h after garlic consumption, respectively. Between the first urine sample (prior to garlic consumption) and the seventh urine sample (8 h after garlic consumption) test persons only spent urine at the specific time points mentioned before. Another sample was provided at the next morning (24 h after garlic consumption). Between the samples provided 8 and 24 h after garlic consumption no urine was collected. All samples were immediately placed into a −80°C freezer and were kept frozen until further analysis.
# The samples of each set were termed according to their sampling time. The following list provides the time intervals that are related to the respective sample name: • - pre: before garlic consumption • - 0.5 h post: 0.4–0.8 h after garlic consumption • - 1 h post: 0.9–1.3 h after garlic consumption • - 2 h post: 1.8 h−2.2 h after garlic consumption • - 4 h post: 3.8–4.4 h after garlic consumption • - 6 h post: 5.8–6.4 h after garlic consumption • - 8 h post: 7.8–8.4 h after garlic consumption • - 24 h post: 23.8–25.6 h after garlic consumption
# A creatinine kit (Labor+Technik Eberhard Lehmann GmbH, Berlin, Germany) was used to determine the creatinine content in each urine sample. The determination principle of this kit is based on the reaction of creatinine with picric acid under basic conditions (Jaffé reaction). The formed complex was detected photometrically at a wavelength of 492 nm.
# For quantification purposes, the deuterated standards ^2H3-AMS, ^2H3-AMSO, and ^2H3-AMSO2 were added to the sample and stirred for 10 min. Subsequently, DCM was added in a ratio of 1:2 (DCM/human urine; v/v) and this solution was stirred for further 30 min at room temperature. To isolate the volatile fraction from the urine samples we then applied SAFE-distillation ([17]), thereby distilling the respective samples at 50°C. After completion of the distillation process, 10 mL of DCM were applied in each case to rinse the SAFE apparatus and to ensure complete transition of the volatile compounds. This process was repeated with another 10 mL of DCM. After thawing, the obtained aqueous distillate phase was extracted three times with 25 mL DCM. The organic phases were combined, dried over anhydrous Na2SO4 and concentrated to a total volume of 100 μL by means of Vigreux distillation and subsequent micro-distillation at 50°C. […]
smiles,measurement,setting,value
"C=CCSC [AMS, allyl methyl sulfide]","metabolite concentration in urine, creatinine-normalized","U IV, 6 h post (6.08 h)",0.04 µg/mmol creatinine
same,metabolite concentration in urine,"U IV, 8 h post (8.05 h)",0.3 µg/kg
same,"metabolite concentration in urine, creatinine-normalized","U IV, 8 h post (8.05 h)",0.1 µg/mmol creatinine
same,metabolite concentration in urine,"U IV, 24 h post (24.03 h)",0.5 µg/kg
same,"metabolite concentration in urine, creatinine-normalized","U IV, 24 h post (24.03 h)",0.1 µg/mmol creatinine
same,metabolite concentration in urine,"U IV, pre (-0.05 h)",< LOD^1
same,"metabolite concentration in urine, creatinine-normalized","U IV, pre (-0.05 h)",< LOD^1
same,metabolite concentration in urine,"U IX, 0.5 h post (0.67 h)",1.0 µg/kg
same,"metabolite concentration in urine, creatinine-normalized","U IX, 0.5 h post (0.67 h)",0.9 µg/mmol creatinine
same,metabolite concentration in urine,"U IX, 1 h post (1.17 h)",1.5 µg/kg
same,"metabolite concentration in urine, creatinine-normalized","U IX, 1 h post (1.17 h)",1.4 µg/mmol creatinine
same,metabolite concentration in urine,"U IX, 2 h post (1.83 h)",1.4 µg/kg
same,"metabolite concentration in urine, creatinine-normalized","U IX, 2 h post (1.83 h)",1.2 µg/mmol creatinine
same,metabolite concentration in urine,"U IX, 4 h post (4.17 h)",2.5 µg/kg
same,"metabolite concentration in urine, creatinine-normalized","U IX, 4 h post (4.17 h)",0.5 µg/mmol creatinine
same,metabolite concentration in urine,"U IX, 6 h post (6.08 h)",1.7 µg/kg
same,"metabolite concentration in urine, creatinine-normalized","U IX, 6 h post (6.08 h)",0.5 µg/mmol creatinine
same,metabolite concentration in urine,"U IX, 8 h post (8.08 h)",0.8 µg/kg
same,"metabolite concentration in urine, creatinine-normalized","U IX, 8 h post (8.08 h)",0.1 µg/mmol creatinine
same,metabolite concentration in urine,"U IX, 24 h post (24.00 h)",traces^1
same,"metabolite concentration in urine, creatinine-normalized","U IX, 24 h post (24.00 h)",traces^1
same,metabolite concentration in urine,"U IX, pre (-0.08 h)",< LOD^1
same,"metabolite concentration in urine, creatinine-normalized","U IX, pre (-0.08 h)",< LOD^1
same,metabolite concentration in urine,"U V, 0.5 h post (0.50 h)",0.5 µg/kg
same,"metabolite concentration in urine, creatinine-normalized","U V, 0.5 h post (0.50 h)",0.7 µg/mmol creatinine
same,metabolite concentration in urine,"U V, 1 h post (1.00 h)",0.7 µg/kg
same,"metabolite concentration in urine, creatinine-normalized","U V, 1 h post (1.00 h)",0.8 µg/mmol creatinine
same,metabolite concentration in urine,"U V, 2 h post (2.00 h)",0.7 µg/kg
same,"metabolite concentration in urine, creatinine-normalized","U V, 2 h post (2.00 h)",0.8 µg/mmol creatinine
same,metabolite concentration in urine,"U V, 4 h post (4.00 h)",0.9 µg/kg
same,"metabolite concentration in urine, creatinine-normalized","U V, 4 h post (4.00 h)",0.3 µg/mmol creatinine
same,metabolite concentration in urine,"U V, 6 h post (6.00 h)",0.7 µg/kg
same,"metabolite concentration in urine, creatinine-normalized","U V, 6 h post (6.00 h)",0.1 µg/mmol creatinine
same,metabolite concentration in urine,"U V, 8 h post (8.00 h)",0.3 µg/kg
same,"metabolite concentration in urine, creatinine-normalized","U V, 8 h post (8.00 h)",0.2 µg/mmol creatinine
same,metabolite concentration in urine,"U V, 24 h post (24.00 h)",traces^1
same,"metabolite concentration in urine, creatinine-normalized","U V, 24 h post (24.00 h)",traces^1
same,metabolite concentration in urine,"U V, pre (-0.05 h)",< LOD^1
same,"metabolite concentration in urine, creatinine-normalized","U V, pre (-0.05 h)",< LOD^1
same,metabolite concentration in urine,"U VI, 0.5 h post (0.50 h)",1.1 µg/kg
same,"metabolite concentration in urine, creatinine-normalized","U VI, 0.5 h post (0.50 h)",0.5 µg/mmol creatinine
same,metabolite concentration in urine,"U VI, 1 h post (1.00 h)",0.7 µg/kg
same,"metabolite concentration in urine, creatinine-normalized","U VI, 1 h post (1.00 h)",0.6 µg/mmol creatinine
same,metabolite concentration in urine,"U VI, 2 h post (2.00 h)",1.0 µg/kg
same,"metabolite concentration in urine, creatinine-normalized","U VI, 2 h post (2.00 h)",0.9 µg/mmol creatinine
same,metabolite concentration in urine,"U VI, 4 h post (4.00 h)",1.2 µg/kg
same,"metabolite concentration in urine, creatinine-normalized","U VI, 4 h post (4.00 h)",0.3 µg/mmol creatinine
same,metabolite concentration in urine,"U VI, 6 h post (6.00 h)",0.9 µg/kg
same,"metabolite concentration in urine, creatinine-normalized","U VI, 6 h post (6.00 h)",0.2 µg/mmol creatinine
same,metabolite concentration in urine,"U VI, 8 h post (8.00 h)",0.5 µg/kg
same,"metabolite concentration in urine, creatinine-normalized","U VI, 8 h post (8.00 h)",0.1 µg/mmol creatinine
same,metabolite concentration in urine,"U VI, 24 h post (24.17 h)",traces^1
same,"metabolite concentration in urine, creatinine-normalized","U VI, 24 h post (24.17 h)",traces^1
same,metabolite concentration in urine,"U VI, pre (-0.05 h)",< LOD^1
same,"metabolite concentration in urine, creatinine-normalized","U VI, pre (-0.05 h)",< LOD^1
same,metabolite concentration in urine,"U VII, 0.5 h post (0.50 h)",0.6 µg/kg
same,"metabolite concentration in urine, creatinine-normalized","U VII, 0.5 h post (0.50 h)",0.5 µg/mmol creatinine
same,metabolite concentration in urine,"U VII, 1 h post (1.08 h)",1.3 µg/kg
